Values quoted from earlier work as cited in patent US20040006111A1, “Transmucosal delivery of proton pump inhibitors” (priority 2002, published 2004).

[1] = omeprazole buccal adhesive tablets (sodium alginate, HPMC, magnesium oxide, croscarmellose sodium), absorption through the buccal mucosa

For `COc1ccc2[nH]c([S+]([O-])Cc3ncc(C)c(OC)c3C)nc2c1` (stereo not drawn) [omeprazole], the bioavailability (omeprazole buccal adhesive tablet formulation of Choi et al.) is listed as “low”, the peak plasma concentration [1] is listed as 370 ng/mL and the “time to generate peak plasma concentration” value [1] is listed as 45 min.
